The record followed here is PMC4208094, “Optical control of insulin release using a photoswitchable sulfonylurea” (Nature Communications, 2014).

Structures are written as SMILES.

Assay [1] has as its target T1, SUR1 (Rattus norvegicus, UniProt Q09429). Put plainly: [3H]-glibenclamide displacement in SUR1-expressing HEK293t cells under illumination. It counts as cell-based. Further details: gene Abcc8.
Target sequence in this assay (Q09429 whole entry): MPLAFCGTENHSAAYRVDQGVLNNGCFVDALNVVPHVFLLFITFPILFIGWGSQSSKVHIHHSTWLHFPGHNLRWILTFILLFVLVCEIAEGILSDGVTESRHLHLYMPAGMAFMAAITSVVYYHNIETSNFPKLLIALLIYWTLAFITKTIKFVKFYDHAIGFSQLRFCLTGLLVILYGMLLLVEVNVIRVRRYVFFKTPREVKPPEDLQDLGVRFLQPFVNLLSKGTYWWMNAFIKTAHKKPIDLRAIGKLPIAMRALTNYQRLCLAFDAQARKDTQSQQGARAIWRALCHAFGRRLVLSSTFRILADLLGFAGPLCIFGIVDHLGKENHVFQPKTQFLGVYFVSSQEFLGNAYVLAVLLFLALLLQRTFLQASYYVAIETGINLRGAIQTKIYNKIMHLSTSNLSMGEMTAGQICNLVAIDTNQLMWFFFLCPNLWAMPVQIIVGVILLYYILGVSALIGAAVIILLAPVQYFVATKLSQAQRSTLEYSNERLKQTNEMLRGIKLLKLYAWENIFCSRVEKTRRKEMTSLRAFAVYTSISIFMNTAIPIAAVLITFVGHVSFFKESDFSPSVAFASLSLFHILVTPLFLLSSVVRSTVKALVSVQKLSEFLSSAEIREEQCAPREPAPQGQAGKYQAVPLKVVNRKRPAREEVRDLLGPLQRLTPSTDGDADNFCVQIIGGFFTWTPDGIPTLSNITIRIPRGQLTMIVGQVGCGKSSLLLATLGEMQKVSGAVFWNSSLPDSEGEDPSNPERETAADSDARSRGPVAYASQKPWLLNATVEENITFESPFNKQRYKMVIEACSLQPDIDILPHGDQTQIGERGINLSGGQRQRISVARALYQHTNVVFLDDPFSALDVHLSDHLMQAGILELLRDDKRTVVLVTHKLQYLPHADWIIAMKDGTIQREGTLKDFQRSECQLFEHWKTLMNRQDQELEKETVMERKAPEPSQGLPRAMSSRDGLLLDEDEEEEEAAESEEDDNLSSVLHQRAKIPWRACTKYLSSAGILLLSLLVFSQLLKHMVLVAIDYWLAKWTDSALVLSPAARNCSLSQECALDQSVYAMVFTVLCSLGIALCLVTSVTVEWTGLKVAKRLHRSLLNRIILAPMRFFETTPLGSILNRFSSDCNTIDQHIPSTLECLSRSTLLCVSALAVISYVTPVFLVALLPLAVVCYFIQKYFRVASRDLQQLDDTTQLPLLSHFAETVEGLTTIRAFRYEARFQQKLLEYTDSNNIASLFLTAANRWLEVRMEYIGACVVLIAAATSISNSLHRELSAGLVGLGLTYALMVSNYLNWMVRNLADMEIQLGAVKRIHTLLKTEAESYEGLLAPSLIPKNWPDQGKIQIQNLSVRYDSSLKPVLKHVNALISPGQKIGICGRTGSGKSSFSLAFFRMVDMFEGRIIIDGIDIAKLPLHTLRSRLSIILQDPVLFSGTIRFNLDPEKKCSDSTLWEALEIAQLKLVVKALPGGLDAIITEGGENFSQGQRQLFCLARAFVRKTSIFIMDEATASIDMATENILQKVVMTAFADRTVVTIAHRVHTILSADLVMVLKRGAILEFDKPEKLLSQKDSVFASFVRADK
The target in assay [2] is T1, SUR1. Put plainly: whole-cell patch clamp of heterologous KATP channels, […] tolbutamide. The class given is cell-based. Further details: gene Abcc8; rat SUR1 (Genbank L40624) co-expressed with Kir6.2 in HEK293t cells; with Kir6.2. A general note: The patch-clamp technique gives a direct electrical read-out from membranes.
Target sequence in this assay (Q09429 whole entry): as above
Target sequence in this assay (Q61743 whole entry partner): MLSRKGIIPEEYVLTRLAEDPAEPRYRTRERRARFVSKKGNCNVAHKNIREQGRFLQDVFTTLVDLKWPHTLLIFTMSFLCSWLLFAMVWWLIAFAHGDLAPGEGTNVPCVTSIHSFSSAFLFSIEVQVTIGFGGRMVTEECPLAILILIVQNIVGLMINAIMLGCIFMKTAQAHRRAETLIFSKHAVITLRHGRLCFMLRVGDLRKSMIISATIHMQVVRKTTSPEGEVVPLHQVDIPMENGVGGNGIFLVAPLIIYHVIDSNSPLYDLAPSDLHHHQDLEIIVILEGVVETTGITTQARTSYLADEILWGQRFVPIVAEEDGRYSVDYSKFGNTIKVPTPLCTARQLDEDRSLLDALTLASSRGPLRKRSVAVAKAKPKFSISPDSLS

In the case of `CCN(CC)c1ccc(/N=N\c2ccc(S(=O)(=O)NC(=O)NC3CCCCC3)cc2)cc1` [JB253, (Z)-N-(cyclohexylcarbamoyl)-4-((4-(diethylamino)phenyl)diazenyl)benzenesulfonamide], the IC50 on SUR1 [1] stood at 14.8 µM. Turning to `CCCCNC(=O)NS(=O)(=O)c1ccc(C)cc1` [tolbutamide], the KATP current response entry on SUR1 [2] is “Tolbutamide and diazoxide-sensitive inward-rectifying K^+ currents could be recorded in transfected cells”.

What is called IC50 is the concentration needed to halve the response being measured. Lower therefore signals greater potency.
